# Source: patent US4613355A, “Antibiotic having herbicidal activity” (Satoshi Omura, priority 1983, dated 1986)
# Where a name gives a salt, the structure may show the parent alone.
# Assays:
# Format in all cases: in vivo
# [1] = system: Picea densiflora; assay: Foliage treatment of woody plants (Example 10); design: key: 0 indicates no effect; 5 indicates complete kill; settings: Plant No. 22 Picea densiflora
# Source text: (§1) Aqueous solutions containing Phosalacine (Na salt) at different concentrations and 0.1% of octylphenylpolyoxy ethanol as surfactant were applied at a rate of 1500 liter per hectare to woody plants of about 60-70 cm in height. 7 and 14 days after the foliage treatment, damage to the plants was visually assessed on a scale of from 0 to 5 (cf. Example 7).
# [2] = system: Larix leptolepis; assay: Foliage treatment of woody plants (Example 10); design: key: 0 indicates no effect; 5 indicates complete kill; settings: Plant No. 23 Larix leptolepis
# Source text: as §1
# [3] = system: Castanea crenata; assay: Foliage treatment of woody plants (Example 10); design: key: 0 indicates no effect; 5 indicates complete kill; settings: Plant No. 8 Castanea crenata
# Source text: as §1
# [4] = system: Cryptomeria japonica; assay: Foliage treatment of woody plants (Example 10); design: key to damage to the plants, scale 0 to 5: 0 indicates no effect; 5 indicates complete kill; settings: CP Cryptomeria japonica
# Source text: as §1
# [5] = system: Chamaecyparis obtusa; assay: Foliage treatment of woody plants (Example 10); design: key to damage to the plants, scale 0 to 5: 0 indicates no effect; 5 indicates complete kill; settings: CH Chamaecyparis obtusa
# Source text: as §1
# [6] = system: Digitaria adscendens; assay: Foliage treatment of seedlings in pots (Example 7); settings: 10 days after foliage treatment, 1000 liter per hectare
# Protocol: Upland soil was put in a pot of 10 cm diameter and the seeds of Digitaria adscendens were sown in the soil at a depth of 1 cm from the surface. When the height of the seedlings was about 10 cm, aqueous solutions of the test compounds as shown in the following Table were uniformly sprayed on the plants at a rate of 1.2 ml per plant, equivalent to 1000 liter per hectare. 10 days after the foliage treatment, damage to plants was visually assessed on a scale of from 0 to 10, where 0 indicates no effect and 10 indicates complete kill.
# [7] = system: Glycine max; assay: Foliage treatment (Example 8); design: key: 0 indicates no effect; 5 indicates complete kill; settings: Plant No. 34 Glycine max
# Protocol: (§2) Aqueous solutions of Phosalacine (Na salt) at different concentrations were applied at a rate of 1500 liters per hectare to naturally occurring plants or plants which were cultured on plates as shown in the following Table at certain stages of growth. […]
# [8] = system: Cucumis sativus; assay: Foliage treatment (Example 8); design: key: 0 indicates no effect; 5 indicates complete kill; settings: Plant No. 33 Cucumis sativus
# Protocol: as §2
# [9] = system: Miscanthus sinensis; assay: Foliage treatment (Example 8); design: key: 0 indicates no effect; 5 indicates complete kill; settings: Plant No. 5 Miscanthus sinensis
# Protocol: as §2
# [10] = system: Euphonia supina; assay: Foliage treatment (Example 8); design: key: 0 indicates no effect; 5 indicates complete kill; settings: Plant No. 36 Euphonia supina
# Protocol: as §2
# [11] = system: Artemisia princeps; assay: Foliage treatment (Example 8); design: key: 0 indicates no effect; 5 indicates complete kill; settings: Plant No. 1 Artemisia princeps
# Protocol: as §2
# [12] = system: Brassica oleracea; assay: Foliage treatment (Example 8); design: key: 0 indicates no effect; 5 indicates complete kill; settings: Plant No. 28 Brassica oleracea
# Protocol: as §2
# [13] = system: Oxalis corniculata; assay: Foliage treatment (Example 8); design: key: 0 indicates no effect; 5 indicates complete kill; settings: Plant No. 35 Oxalis corniculata
# Protocol: as §2
# [14] = system: Allium fistulosum; assay: Foliage treatment (Example 8); design: key: 0 indicates no effect; 5 indicates complete kill; settings: Plant No. 27 Allium fistulosum
# Protocol: as §2
# [15] = system: Eleucine indica var. carocana; assay: Foliage treatment (Example 8); design: key: 0 indicates no effect; 5 indicates complete kill; settings: Plant No. 24 Eleucine indica var. carocana
# Protocol: as §2
# [16] = system: Arctium lappa; assay: Foliage treatment (Example 8); design: key: 0 indicates no effect; 5 indicates complete kill; settings: Plant No. 30 Arctium lappa, 14 days
# Protocol: as §2
compound,measurement,setting,value
CC(C)C[C@H](NC(=O)[C@H](C)NC(=O)[C@@H](N)CCP(C)(=O)O)C(=O)O [Phosalacine (Na salt)],"damage to the plants, scale 0 to 5","[1]; 0.125%, 7 days",4
same,"damage to the plants, scale 0 to 5","[1]; 0.125%, 14 days",5
same,"damage to the plants, scale 0 to 5","[1]; 0.25%, 7 days",4
same,"damage to the plants, scale 0 to 5","[1]; 0.25%, 14 days",5
same,"damage to the plants, scale 0 to 5","[1]; 0.5%, 7 days",4
same,"damage to the plants, scale 0 to 5","[1]; 0.5%, 14 days",5
same,"damage to the plants, scale 0 to 5","[2]; 0.125%, 7 days",4
same,"damage to the plants, scale 0 to 5","[2]; 0.125%, 14 days",5
same,"damage to the plants, scale 0 to 5","[2]; 0.25%, 7 days",4
same,"damage to the plants, scale 0 to 5","[2]; 0.25%, 14 days",5
same,"damage to the plants, scale 0 to 5","[2]; 0.5%, 7 days",4
same,"damage to the plants, scale 0 to 5","[2]; 0.5%, 14 days",5
same,"damage to the plants, scale 0 to 5","[3]; 0.125%, 7 days",5
same,"damage to the plants, scale 0 to 5","[3]; 0.125%, 14 days",5
same,"damage to the plants, scale 0 to 5","[3]; 0.25%, 7 days",5
same,"damage to the plants, scale 0 to 5","[3]; 0.25%, 14 days",5
same,"damage to the plants, scale 0 to 5","[3]; 0.5%, 7 days",5
same,"damage to the plants, scale 0 to 5","[3]; 0.5%, 14 days",5
same,"damage to the plants, scale 0 to 5","[4]; 0.125%, 7 days",0
same,"damage to the plants, scale 0 to 5","[4]; 0.125%, 14 days",0
same,"damage to the plants, scale 0 to 5","[4]; 0.25%, 7 days",0
same,"damage to the plants, scale 0 to 5","[4]; 0.25%, 14 days",1
same,"damage to the plants, scale 0 to 5","[4]; 0.5%, 7 days",0
same,"damage to the plants, scale 0 to 5","[4]; 0.5%, 14 days",2
same,"damage to the plants, scale 0 to 5","[5]; 0.125%, 7 days",0
same,"damage to the plants, scale 0 to 5","[5]; 0.125%, 14 days",0
same,"damage to the plants, scale 0 to 5","[5]; 0.25%, 7 days",0
same,"damage to the plants, scale 0 to 5","[5]; 0.25%, 14 days",0
same,"damage to the plants, scale 0 to 5","[5]; 0.5%, 7 days",0
same,"damage to the plants, scale 0 to 5","[5]; 0.5%, 14 days",0
same,"damage to plants, scale 0 to 10",[6]; Concentration 0.01 ppm,3 (30)
same,"damage to plants, scale 0 to 10",[6]; Concentration 0.03 ppm,10 (100)
same,"damage to plants, scale 0 to 10",[6]; Concentration 0.1 ppm,10 (100)
same,"damage to the plants, scale 0 to 5","[7]; 0.05%, 7 days",3
same,"damage to the plants, scale 0 to 5","[7]; 0.05%, 14 days",5
same,"damage to the plants, scale 0 to 5","[7]; 0.1%, 7 days",5
same,"damage to the plants, scale 0 to 5","[7]; 0.1%, 14 days",5
same,"damage to the plants, scale 0 to 5","[8]; 0.05%, 7 days",3
same,"damage to the plants, scale 0 to 5","[8]; 0.05%, 14 days",4
same,"damage to the plants, scale 0 to 5","[8]; 0.1%, 7 days",5
same,"damage to the plants, scale 0 to 5","[8]; 0.1%, 14 days",5
same,"damage to the plants, scale 0 to 5","[9]; 0.05%, 7 days",3
same,"damage to the plants, scale 0 to 5","[9]; 0.05%, 14 days",4
same,"damage to the plants, scale 0 to 5","[9]; 0.1%, 7 days",5
same,"damage to the plants, scale 0 to 5","[9]; 0.1%, 14 days",5
same,"damage to the plants, scale 0 to 5","[10]; 0.05%, 7 days",3
same,"damage to the plants, scale 0 to 5","[10]; 0.05%, 14 days",4
same,"damage to the plants, scale 0 to 5","[10]; 0.1%, 7 days",5
same,"damage to the plants, scale 0 to 5","[10]; 0.1%, 14 days",5
same,"damage to the plants, scale 0 to 5","[11]; 0.05%, 7 days",3
same,"damage to the plants, scale 0 to 5","[11]; 0.05%, 14 days",4
same,"damage to the plants, scale 0 to 5","[11]; 0.1%, 7 days",5
same,"damage to the plants, scale 0 to 5","[11]; 0.1%, 14 days",5
same,"damage to the plants, scale 0 to 5","[12]; 0.05%, 7 days",3
same,"damage to the plants, scale 0 to 5","[12]; 0.05%, 14 days",4
same,"damage to the plants, scale 0 to 5","[12]; 0.1%, 7 days",5
same,"damage to the plants, scale 0 to 5","[12]; 0.1%, 14 days",5
same,"damage to the plants, scale 0 to 5","[13]; 0.05%, 7 days",3
same,"damage to the plants, scale 0 to 5","[13]; 0.05%, 14 days",4
same,"damage to the plants, scale 0 to 5","[13]; 0.1%, 7 days",5
same,"damage to the plants, scale 0 to 5","[13]; 0.1%, 14 days",5
same,"damage to the plants, scale 0 to 5","[14]; 0.05%, 7 days",3
same,"damage to the plants, scale 0 to 5","[14]; 0.05%, 14 days",5
same,"damage to the plants, scale 0 to 5","[14]; 0.1%, 7 days",5
same,"damage to the plants, scale 0 to 5","[14]; 0.1%, 14 days",5
same,"damage to the plants, scale 0 to 5","[15]; 0.05%, 7 days",3
same,"damage to the plants, scale 0 to 5","[15]; 0.05%, 14 days",4
same,"damage to the plants, scale 0 to 5","[15]; 0.1%, 7 days",5
same,"damage to the plants, scale 0 to 5","[15]; 0.1%, 14 days",5
same,"damage to the plants, scale 0 to 5",[16]; 0.05%,4
same,"damage to the plants, scale 0 to 5",[16]; 0.1%,5
